For this assay, the target named is T1, hMC2 receptor (crude hMC2R membranes from CRE-bla-CHO-K1 cells stably expressing hMC2 receptor and hMRAP accessory protein) (Homo sapiens, UniProt Q01718).
T1 construct: crude membrane fractions
T1 sequence (Q01718 whole entry): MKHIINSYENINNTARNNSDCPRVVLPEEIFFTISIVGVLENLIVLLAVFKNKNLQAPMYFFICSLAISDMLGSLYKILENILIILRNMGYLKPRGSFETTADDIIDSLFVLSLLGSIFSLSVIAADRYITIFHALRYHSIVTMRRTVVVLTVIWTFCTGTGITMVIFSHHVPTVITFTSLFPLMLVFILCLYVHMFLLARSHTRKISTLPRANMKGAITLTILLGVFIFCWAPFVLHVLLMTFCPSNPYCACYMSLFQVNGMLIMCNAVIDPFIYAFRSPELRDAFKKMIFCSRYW
T1 sequence (Q8TCY5 whole entry partner): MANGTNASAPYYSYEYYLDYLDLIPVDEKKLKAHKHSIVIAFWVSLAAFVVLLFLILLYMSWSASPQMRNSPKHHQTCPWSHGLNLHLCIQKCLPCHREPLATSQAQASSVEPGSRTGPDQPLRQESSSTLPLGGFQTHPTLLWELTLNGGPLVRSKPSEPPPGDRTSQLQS
The assay is described as follows: hMC2 membrane binding assay ([125I]ACTH (1-39) Tyr23, SPA). Conditions: displacement of 0.2 nM [125I]ACTH (1-39) Tyr23 from hMC2R membranes, 1.5 hours at room temperature; read-out: MC2R binding potency. On the procedure:
Crude membrane fractions are prepared from CRE-bla-CHO-K1 cells stably expressing hMC2 receptor and hMRAP accessory protein (Thermo Fisher). The cells are grown to 85-100% confluence on standard tissue culture dishes in GlutaMax DMEM growth media (Gibco) with following additives: 10% dialyzed FBS (Gemini), 0.1 mM NEAA (Gibco), 25 mM HEPES (Gibco), 5 μg/mL blasticidin (Goldbio), 100 μg/mL zeocin (Invitrogen), 600 μg/mL hygromycin (Goldbio). To prepare membranes, cells are scraped and collected in 1× Dulbecco's phosphate buffered saline (Corning) and then pelleted at 1000 RPM's. The cell pellet is reconstituted in membrane preparation buffer (20 mM HEPES, 6 mM MgCl2 and 1 mM EGTA, protease inhibitor tablets (Pierce) adjusted to pH 7.4), homogenized using a dounce homogenizer, and the resulting membrane fraction is pelleted by centrifugation at 12,000 RPM's. The membrane pellet is resuspended in membrane preparation buffer, snap freezed and stored at −80° C. for later use.
Binding Assay for hMC2 Antagonists Protocol:
The hMC2 membrane binding assay utilizes the following components: radiolabel [^125I]ACTH (1-39) Tyr23 (PerkinElmer), wheatgerm agglutinin coated PVT SPA beads (PerkinElmer), crude hMC2R membranes, and compounds. Briefly hMC2R membranes are incubated with SPA beads in binding assay buffer (50 mM HEPES, 5 mM MgCl2, 1 mM CaCl2), 0.20% BSA, protease inhibitor tablets (Pierce) adjusted to pH7.4) prior to assay initiation. […] Assay plates are read using a Top Count NXT and Ki values for compounds are determined using a GraphPad Prism 6 non-linear regression analysis.
For `CN1CC[C@@H](NC(=O)C2(c3ccc(-c4ccn(C)c4)nc3)CCN(c3ccc(C(F)(F)F)cc3C#N)CC2)C1` [Compound 1-115, 1-[2-cyano-4-(trifluoromethyl)phenyl]-4-[6-(1-methyl-1H-pyrrol-3-yl)pyridin-3-yl]-N-[(3R)-1-methylpyrrolidin-3-yl]piperidine-4-carboxamide], the Ki was 10 to 100 nM. As for `CCOc1ncccc1-c1ccc(C2(C(=O)N[C@@H]3CCN(C)C3)CCN(c3ccc(C(F)(F)F)nc3C#N)CC2)cc1` [Compound 1-23, 1-[2-cyano-6-(trifluoromethyl)pyridin-3-yl]-4-[4-(2-ethoxypyridin-3-yl)phenyl]-N-[(3R)-1-methylpyrrolidin-3-yl]piperidine-4-carboxamide], the Ki is < 10 nM. For the molecule `CNCCNC(=O)C1(c2ccc(-c3ccccc3OC)nc2)CCN(c2ccc(C(F)(F)F)cc2Cl)CC1` [Compound 1-257, 1-[2-chloro-4-(trifluoromethyl)phenyl]-4-[6-(2-methoxyphenyl)pyridin-3-yl]-N-[2-(methylamino)ethyl]piperidine-4-carboxamide], the Ki was < 10 nM. Regarding `Cc1cscc1-c1ccc(C2(C(=O)N[C@@H]3CCN(C)C3)CCN(c3ccc(C(F)(F)F)cc3C#N)CC2)cn1` [Compound 1-138, 1-[2-cyano-4-(trifluoromethyl)phenyl]-N-[(3R)-1-methylpyrrolidin-3-yl]-4-[6-(4-methylthiophen-3-yl)pyridin-3-yl]piperidine-4-carboxamide], the Ki is < 10 nM. As for `CN1CC[C@H](OC(=O)NC2(c3ccc(-c4cccn4C)nc3)CCN(c3ccc(C(F)(F)F)cc3C#N)CC2)C1` [Compound 2-42, (3S)-1-methylpyrrolidin-3-yl N-{1-[2-cyano-4-(trifluoromethyl)phenyl]-4-[6-(1-methyl-1H-pyrrol-2-yl)pyridin-3-yl]piperidin-4-yl}carbamate], the figure is < 10 nM. With `CN1CC[C@@H](NC(=O)C2(c3ccc(-c4ccccc4OC(F)F)nc3)CCN(c3ccc(C(F)(F)F)cc3C#N)CC2)C1` [Compound 1-114, 1-[2-cyano-4-(trifluoromethyl)phenyl]-4-{6-[2-(difluoromethoxy)phenyl]pyridin-3-yl}-N-[(3R)-1-methylpyrrolidin-3-yl]piperidine-4-carboxamide], the Ki is < 10 nM.

As for `CCOc1ncccc1-c1ccc(C2(NC(=O)N3CC[C@@H](NC)C3)CCN(c3ccc(C(F)(F)F)cc3C#N)CC2)cn1` [Compound 2-21], the Ki was < 10 nM. For the molecule `CCN(C)CCNC(=O)C1(c2ccc(-c3cccn3C)nc2)CCN(c2ccc(C(F)(F)F)cc2C#N)CC1` [Compound 1-265, 1-[2-cyano-4-(trifluoromethyl)phenyl]-N-{2-[ethyl(methyl)amino]ethyl}-4-[6-(1-methyl-1H-pyrrol-2-yl)pyridin-3-yl]piperidine-4-carboxamide], the Ki is < 10 nM. For the molecule `CNCCNC(=O)C1(c2cnc(-c3ccccc3OC)c(F)c2)CCN(c2ccc(C(F)(F)F)cc2Cl)CC1` [Compound 1-294, 1-[2-chloro-4-(trifluoromethyl)phenyl]-4-[5-fluoro-6-(2-methoxyphenyl)pyridin-3-yl]-N-[2-(methylamino)ethyl]piperidine-4-carboxamide], the Ki was 10 to 100 nM. In the case of `CCOc1ncccc1-c1ccc(C2(C(=O)NC[C@@H](CO)N(C)C)CCN(c3ccc(C(F)(F)F)cc3C#N)CC2)cn1` [Compound 1-48, 1-[2-cyano-4-(trifluoromethyl)phenyl]-N-[(2S)-2-(dimethylamino)-3-hydroxypropyl]-4-{2′-ethoxy-[2,3′-bipyridin]-5-yl}piperidine-4-carboxamide], the Ki was < 10 nM. As for `CCOc1ccccc1-c1ccc(C2(C(=O)NC3CN(C)C3)CCN(c3ccc(Cl)cc3C#N)CC2)cn1` [Compound 1-93, 1-(4-chloro-2-cyanophenyl)-4-[6-(2-ethoxyphenyl)pyridin-3-yl]-N-(1-methylazetidin-3-yl)piperidine-4-carboxamide], the Ki is < 10 nM. In the case of `Cc1oncc1-c1ccc(C2(C(=O)N[C@@H]3CCN(C)C3)CCN(c3ccc(C(F)(F)F)cc3C#N)CC2)cn1` [Compound 1-157, 1-[2-cyano-4-(trifluoromethyl)phenyl]-4-[6-(5-methyl-1,2-oxazol-4-yl)pyridin-3-yl]-N-[(3R)-1-methylpyrrolidin-3-yl]piperidine-4-carboxamide], the Ki was 10 to 100 nM. Consider `CCOc1ncccc1-c1ncc(C2(C(=O)N[C@@H]3CCN(C)C3)CCN(c3ccc(C(F)(F)F)cc3C#N)CC2)cc1F` [Compound 1-108, 1-[2-cyano-4-(trifluoromethyl)phenyl]-4-{2′-ethoxy-3-fluoro-[2,3′-bipyridin]-5-yl}-N-[(3R)-1-methylpyrrolidin-3-yl]piperidine-4-carboxamide], for which the Ki was < 10 nM. Take `COc1sccc1-c1ccc(C2(C(=O)N[C@H]3CCN(C)C3)CCN(c3ccc(C(F)(F)F)cc3C#N)CC2)cn1` [Compound 1-119, 1-[2-cyano-4-(trifluoromethyl)phenyl]-4-[6-(2-methoxythiophen-3-yl)pyridin-3-yl]-N-[(3S)-1-methylpyrrolidin-3-yl]piperidine-4-carboxamide]: the Ki is < 10 nM. As to `CCOc1ccccc1-c1ccc(C2(C(=O)N[C@@H]3CCN(C)C3)CCN(c3ccc(C(F)(F)F)cc3C#N)CC2)cn1` [Compound 1-31, 1-[2-cyano-4-(trifluoromethyl)phenyl]-4-[6-(2-ethoxyphenyl)pyridin-3-yl]-N-[(3R)-1-methylpyrrolidin-3-yl]piperidine-4-carboxamide], the Ki is < 10 nM.

For `COc1c(F)cc(F)cc1-c1ccc(C2(C(=O)N[C@@H]3CCN(C)C3)CCN(c3ccc(C(F)(F)F)cc3C#N)CC2)cn1` [Compound 1-87, 1-[2-cyano-4-(trifluoromethyl)phenyl]-4-[6-(3,5-difluoro-2-methoxyphenyl)pyridin-3-yl]-N-[(3R)-1-methylpyrrolidin-3-yl]piperidine-4-carboxamide], the Ki is < 10 nM.

In the case of `CCOc1ncccc1-c1ccc(C2(C(=O)N[C@@H]3CCN(C)C3)CCN(c3ccc(C(F)(F)F)cc3C#N)CC2)cc1` [Compound 1-1, 1-[2-cyano-4-(trifluoromethyl)phenyl]-4-[4-(2-ethoxypyridin-3-yl)phenyl]-N-[(3R)-1-methylpyrrolidin-3-yl]piperidine-4-carboxamide], the Ki was < 10 nM. With `COc1ccccc1-c1ccc(C2(C(=O)NC[C@@H]3CN(C)CCO3)CCN(c3ccc(C(F)(F)F)cc3C#N)CC2)cn1` [Compound 1-330, 1-[2-cyano-4-(trifluoromethyl)phenyl]-4-[6-(2-methoxyphenyl)pyridin-3-yl]-N-{[(2R)-4-methylmorpholin-2-yl]methyl}piperidine-4-carboxamide], the Ki was in the range of 10 to 100 nM. As for `COc1ncc(F)cc1-c1ccc(C2(C(=O)N[C@@H]3CCN(C)C3)CCN(c3ccc(C(F)(F)F)cc3C#N)CC2)cn1` [Compound 1-86, 1-[2-cyano-4-(trifluoromethyl)phenyl]-4-{5′-fluoro-2′-methoxy-[2,3′-bipyridin]-5-yl}-N-[(3R)-1-methylpyrrolidin-3-yl]piperidine-4-carboxamide], the Ki was < 10 nM. As for `CNCCNC(=O)C1(c2ccc(-c3cccn3C)nc2)CCN(c2ccc(C(F)(F)F)cc2C#N)CC1` [Compound 1-215, 1-[2-cyano-4-(trifluoromethyl)phenyl]-4-[6-(1-methyl-1H-pyrrol-2-yl)pyridin-3-yl]-N-[2-(methylamino)ethyl]piperidine-4-carboxamide], the figure is < 10 nM.

As for `CCOc1ncccc1-c1ncc(C2(C(=O)NC[C@H](CO)N(C)C)CCN(c3ccc(C(F)(F)F)cc3C#N)CC2)cc1F` [Compound 1-334, 1-[2-cyano-4-(trifluoromethyl)phenyl]-N-[(2R)-2-(dimethylamino)-3-hydroxypropyl]-4-{2′-ethoxy-3-fluoro-[2,3′-bipyridin]-5-yl}piperidine-4-carboxamide], the Ki was < 10 nM. As to `CNCCCNC(=O)C1(c2cnc(-c3ccccc3OC)c(F)c2)CCN(c2ccc(C(F)(F)F)cc2C#N)CC1` [Compound 1-197, 1-[2-cyano-4-(trifluoromethyl)phenyl]-4-[5-fluoro-6-(2-methoxyphenyl)pyridin-3-yl]-N-[3-(methylamino)propyl]piperidine-4-carboxamide], the Ki was < 10 nM. For `COc1sccc1-c1ccc(C2(C(=O)N[C@@H]3CCN(C)C3)CCN(c3ccc(C(F)(F)F)cc3C#N)CC2)cn1` [Compound 1-83, 1-[2-cyano-4-(trifluoromethyl)phenyl]-4-[6-(2-methoxythiophen-3-yl)pyridin-3-yl]-N-[(3R)-1-methylpyrrolidin-3-yl]piperidine-4-carboxamide], the Ki was < 10 nM. For `CCOc1ccccc1-c1ccc(C2(C(=O)NC3CN(C)C3)CCN(c3ccc(C(F)(F)F)cc3C#N)CC2)cn1` [Compound 1-76, 1-[2-cyano-4-(trifluoromethyl)phenyl]-4-[6-(2-ethoxyphenyl)pyridin-3-yl]-N-(1-methylazetidin-3-yl)piperidine-4-carboxamide], the Ki was < 10 nM.

The record behind these values is patent US12492181B2, “Gem-disubstituted piperidine melanocortin subtype-2 receptor (MC2R) antagonists and uses thereof” (Crinetics Pharmaceuticals, Inc., priority 2019, dated 2025).
